Results on ten compounds are retold here after PubChem BioAssay (NCI).

Holding throughout (test): DTP human tumour cell line panel, 48 h
Assay [1] relates to UACC-62 melanoma.
Assay [2] concerns COLO 205 colon.
Assay [3] concerns A498 renal.
Assay [4] has as its system 786-0 renal.
The test system of assay [5] is HT29 colon.
The subject of assay [6] is SK-MEL-5 melanoma.
The test system of assay [7] is CCRF-CEM leukemia.
Assay [8] concerns MDA-MB-435.
The test system of assay [9] is SK-MEL-2 melanoma.
The test system of assay [10] is NCI/ADR-RES ovarian.
For assay [11], the system named is KM12 colon.
In assay [12] the test system is HS 578T breast.

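Where inhibition never reached the appropriate level, the endpoint shown equals the highest concentration tested. Otherwise, values were interpolated linearly from a five-concentration, 48-hour dose response in 96-well plates. The concentration for full growth arrest is given as TGI.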

As for `Cc1ccc(S(=O)(=O)n2ccn3c(=O)cc(C)nc23)cc1`, the TGI in assay [1], in [2], in assay [3], in assay [4], in assay [5] and in assay [6] was above 10 µM in each case. The TGI in assay [7], in assay [8], in assay [9], in assay [10], in [11] and in [12] was above 10 µM in each case.

Consider `CCCNc1[nH]c(C(C)=O)c(N)c1C(=S)Nc1ccccc1`, for which the TGI (in general, the concentration at which net growth stops) in assay [1] is 41.6 µM; in [2], above 100 µM; in assay [3], above 100 µM; in assay [4], 75.6 µM; in assay [5], 53.2 µM; in assay [6], 52.3 µM. In addition, the TGI was above 100 µM in assay [7]; 55.9 µM in [8]; above 100 µM in assay [9]; above 100 µM in assay [10]; above 100 µM in assay [11]; above 100 µM in assay [12].

On to `COC(=O)C(Cc1ccccc1)NS(=O)(=O)c1ccc(-c2c3nc(c(-c4ccc(S(=O)(=O)NC(Cc5ccccc5)C(=O)OC)cc4)c4ccc([nH]4)c(-c4ccc(S(=O)(=O)NC(Cc5ccccc5)C(=O)OC)cc4)c4nc(c(-c5ccc(S(=O)(=O)NC(Cc6ccccc6)C(=O)OC)cc5)c5ccc2[nH]5)C=C4)C=C3)cc1` (stereo not given), for which the total growth inhibition concentration (TGI) in [1], in [2], in assay [3], in assay [4], in assay [5] and in [6] was above 100 µM each time. The TGI in assay [7] is above 100 µM; in assay [8], above 100 µM; in assay [9], above 100 µM; in [10] it was above 100 µM; in [11] it was above 100 µM; in [12] it was 62 µM.

For the compound `CC(C)C1OCC(CO)CO1` (stereo not given), the TGI in assay [1], in assay [2], in [3], in assay [4], in [5] and in [6] was above 100 µM each time. The TGI in assay [7], in assay [8], in assay [9], in assay [10], in assay [11] and in assay [12] was above 100 µM throughout.

With `COC(=O)C1=NN2c3ccccc3CN([C@@H](C)c3ccccc3)C(=O)[C@@H]2C1`, the TGI in assay [1] is 66.8 µM; in [2], above 100 µM; in [3] it was above 100 µM; in [4], above 100 µM; in assay [5], above 100 µM; in assay [6], 32.7 µM. Further, the TGI is above 100 µM in [7]; 34 µM in assay [8]; 74.1 µM in assay [9]; 56.1 µM in assay [10]; 51.3 µM in assay [11]; 85.8 µM in assay [12].

Consider `C=C1C(=O)C=C2C=C3C(=O)C(C)(C)C[C@]3(O)C12C` (stereo not given in full), for which the TGI came to 17.8 µM in [1]; 3.53 µM in assay [2]; 23.2 µM in assay [3]; 3.41 µM in [4]; 11.1 µM in [5]; 19 µM in [6]. The TGI in [7] is 1.37 µM; in [8] it was 32.6 µM; in [9], 33.2 µM; in assay [10] it was above 100 µM; in [11], 32.1 µM; in [12] it was 43.8 µM.

Regarding `C[C@H](CCc1nc(C#N)c(N)o1)[C@H]1CC[C@H]2[C@@H]3[C@@H](O)CC4C[C@@H](O)CC[C@]4(C)[C@H]3C[C@@H](O)[C@]12C` (stereo not given in full), the TGI in [1] is 30.5 µM; in [2], 40.5 µM; in assay [3], above 100 µM; in [4], above 86.7 µM; in [5] it was 45.6 µM; in assay [6], 40.9 µM. In addition, the TGI in assay [7] was above 25.2 µM; in assay [8], 48.8 µM; in assay [9], 45.1 µM; in assay [10], above 100 µM; in [11] it was 53.8 µM; in assay [12], 62.6 µM.

For the compound `CCCCc1ccc(Nc2nc(Cl)c3[nH]cnc3n2)cc1`, the TGI worked out at 31.9 µM in assay [1]; 43.4 µM in [2]; 55.4 µM in assay [3]; 29.1 µM in [4]; 36.3 µM in assay [5]; 31.6 µM in assay [6]. For the same compound, the TGI in assay [7] was above 100 µM; in assay [8], 32.1 µM; in assay [9], 31 µM; in [10], 47.7 µM; in assay [11], 32 µM; in assay [12], 50.5 µM.

On to `CN1N=C(c2ccncc2)OC1c1ccc(Cl)c(Cl)c1` (stereo not given), for which the TGI in [1], in [2], in assay [3], in assay [4], in assay [5] and in [6] was above 100 µM throughout. For the same compound, the TGI in assay [7], in assay [8], in assay [9], in assay [10], in assay [11] and in assay [12] was above 100 µM throughout.

For the compound `C=CCCCC1(C)CCCCNC1=O` (stereo not given), the TGI in [1], in [2], in assay [3], in assay [4], in assay [5] and in [6] was above 10 µM each time. Also, the TGI in [7], in assay [8], in assay [9], in assay [10], in [11] and in assay [12] was above 10 µM each time.
